Experimental data from patent US12649751B2 (Arcus Biosciences, Inc., priority 2022, dated 2026).
Where two headings read alike, the source gives them in different places.

Biological target: HPK1 (Homo sapiens, UniProt Q92918)
Assay: HPK1 Biochemical Assay (ADP-Glo luminescence; low ATP 10 μM or high ATP 200 μM)
[1] = 2 nM HPK1, 10 μM ATP, read-out: Biochemical Potency (low ATP)
[2] = HPK1 ADP-Glo assay, low ATP (10 μM ATP, 2 nM HPK1), read-out: Biochemical Potency (low ATP)

Chain of HPK1 (Q92918 whole entry, species assumed): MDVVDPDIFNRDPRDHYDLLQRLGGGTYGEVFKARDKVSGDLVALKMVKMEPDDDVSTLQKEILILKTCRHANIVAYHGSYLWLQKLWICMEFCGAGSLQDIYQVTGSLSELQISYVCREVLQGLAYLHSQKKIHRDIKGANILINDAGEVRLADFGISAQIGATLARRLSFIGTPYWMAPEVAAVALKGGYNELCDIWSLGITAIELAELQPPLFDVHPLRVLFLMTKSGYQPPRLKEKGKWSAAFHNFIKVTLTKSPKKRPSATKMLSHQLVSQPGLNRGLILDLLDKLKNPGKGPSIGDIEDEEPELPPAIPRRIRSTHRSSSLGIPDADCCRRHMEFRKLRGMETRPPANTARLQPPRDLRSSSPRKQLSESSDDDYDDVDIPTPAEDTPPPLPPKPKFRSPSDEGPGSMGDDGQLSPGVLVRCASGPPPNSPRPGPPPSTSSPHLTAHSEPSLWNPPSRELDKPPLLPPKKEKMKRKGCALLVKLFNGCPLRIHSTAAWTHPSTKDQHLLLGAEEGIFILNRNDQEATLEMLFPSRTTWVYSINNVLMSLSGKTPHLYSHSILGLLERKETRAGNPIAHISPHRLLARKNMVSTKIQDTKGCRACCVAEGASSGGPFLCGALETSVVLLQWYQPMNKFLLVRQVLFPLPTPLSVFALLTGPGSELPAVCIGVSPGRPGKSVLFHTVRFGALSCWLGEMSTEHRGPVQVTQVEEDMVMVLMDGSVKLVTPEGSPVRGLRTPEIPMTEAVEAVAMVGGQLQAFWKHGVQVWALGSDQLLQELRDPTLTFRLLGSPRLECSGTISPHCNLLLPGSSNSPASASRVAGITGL

Row | Structure (SMILES) | IC50 [1] [nM] | other results
1 | CN(C)C(=O)c1cccc(-c2nc3cc(Nc4nccc(N5C[C@@H]6C[C@H]5CN6C)n4)ncc3s2)c1 [Example 243, N,N-Dimethyl-3-[6-({4-[(1S,4S)-5-methyl-2,5-diazabicyclo[2.2.1]heptan-2-yl]pyrimidin-2-yl}amino)-[1,3]thiazolo[5,4-c]pyridin-2-yl]benzamide] | 100 to 1000 | 
2 | Cc1cc(Nc2cc3nc(-c4ccncc4C)sc3cn2)nc(O[C@H]2CCNC2)c1 [Example 169, 4-Methyl-N-[2-(3-methylpyridin-4-yl)-[1,3]thiazolo[5,4-c]pyridin-6-yl]-6-[(3S)-pyrrolidin-3-yloxy]pyridin-2-amine] | < 100 | 
3 | Cc1cc(Nc2cc3nc(C4CCOCC4)sc3cn2)nc(O[C@H]2CCNC2)c1 [Example 184, 4-Methyl-N-[2-(oxan-4-yl)-[1,3]thiazolo[5,4-c]pyridin-6-yl]-6-[(3S)-pyrrolidin-3-yloxy]pyridin-2-amine] | < 100 | 
4 | Cc1ccc(Nc2cc3nc(-n4nccc4C)sc3cn2)nc1N1CC[C@H](O)C1 [Example 202, (3S)-1-(3-Methyl-6-{[2-(5-methyl-1H-pyrazol-1-yl)-[1,3]thiazolo[5,4-c]pyridin-6-yl]amino}pyridin-2-yl)pyrrolidin-3-ol] | 100 to 1000 | 
5 | Cc1cccnc1-c1nc2cc(Nc3ccc(C4CCOCC4)c(N4C[C@@H]5C[C@H]4CN5C)n3)ncc2s1 [Example 247, 6-[(1S,4S)-5-Methyl-2,5-diazabicyclo[2.2.1]heptan-2-yl]-N-[2-(3-methylpyridin-2-yl)-[1,3]thiazolo[5,4-c]pyridin-6-yl]-5-(oxan-4-yl)pyridin-2-amine] | < 100 | 
6 | Cc1cccnc1-c1nc2cc(Nc3ccc4c(n3)[C@H](N)CC4)ncc2s1 [Example 582] |  | IC50 [2]: < 100 nM
7 | CN1C[C@@H]2C[C@H]1CN2c1cncc(Nc2cc3nc(-c4cc(N5CC[C@@H](F)C5)ccn4)sc3cn2)n1 [Example 125, N-(2-{4-[(3R)-3-Dluoropyrrolidin-1-yl]pyridin-2-yl}-[1,3]thiazolo[5,4-c]pyridin-6-yl)-6-[(1S,4S)-5-methyl-2,5-diazabicyclo[2.2.1]heptan-2-yl]pyrazin-2-amine] | < 100 | 
8 | Cc1cc(Nc2cc3nc(-c4cccc(C(=O)N(C)C[C@@H]5CCOC5)c4)sc3cn2)nc(N2C[C@@H]3C[C@H]2CN3CCO)n1 [Example 557] |  | IC50 (HPK1 ADP-Glo assay, high ATP (200 μM ATP, 5 nM HPK1), read-out: Biochemical Potency (high ATP)): < 100 nM
9 | Cc1cccnc1-c1nc2cc(Nc3cc(C4CCOCC4)nc(N4C[C@@H]5C[C@H]4CN5)n3)ncc2s1 [Example 250, 2-[(1S,4S)-2,5-Diazabicyclo[2.2.1]heptan-2-yl]-N-[2-(3-methylpyridin-2-yl)-[1,3]thiazolo[5,4-c]pyridin-6-yl]-6-(oxan-4-yl)pyrimidin-4-amine] | < 100 | 
10 | Cc1ccc(Nc2cc3nc(-c4cnn(CCO)c4)sc3cn2)nc1CN1CCCC1 [Example 40, 2-{4-[6-({5-Methyl-6-[(pyrrolidin-1-yl)methyl]pyridin-2-yl}amino)-[1,3]thiazolo[5,4-c]pyridin-2-yl]-1H-pyrazol-1-yl}ethan-1-ol] | < 100 | 
11 | Cc1cccnc1-c1nc2cc(Nc3cccc(N4C[C@H]5C[C@@H]4CN5C)n3)ncc2s1 [Example 91, 6-[(1R,4R)-5-Methyl-2,5-diazabicyclo[2.2.1]heptan-2-yl]-N-[2-(3-methylpyridin-2-yl)-[1,3]thiazolo[5,4-c]pyridin-6-yl]pyridin-2-amine] | < 100 | 
12 | Fc1ccc(-c2nc3cc(Nc4ccc(N5CCOCC5)c(CN5CCCC5)n4)ncc3s2)cc1 [Example 22, N-[2-(4-Fluorophenyl)-[1,3]thiazolo[5,4-c]pyridin-6-yl]-5-(morpholin-4-yl)-6-[(pyrrolidin-1-yl)methyl]pyridin-2-amine] | < 100 | 
13 | CN1C[C@@H]2C[C@H]1CN2c1cncc(Nc2cc3nc(-c4cccc(C(C)(C)O)c4)sc3cn2)n1 [Example 418] |  | IC50 [2]: < 100 nM
14 | Cc1cc(Nc2cc3nc(-c4ccnc(C)c4)sc3cn2)nc(O[C@H]2CCNC2)c1 [Example 168, 4-Methyl-N-[2-(2-methylpyridin-4-yl)-[1,3]thiazolo[5,4-c]pyridin-6-yl]-6-[(3S)-pyrrolidin-3-yloxy]pyridin-2-amine] | < 100 | 
15 | Cc1cccnc1-c1nc2cc(Nc3ccc(C)c(N4C[C@H]5CC[C@@H](C4)[C@H]5O)n3)ncc2s1 [Example 106, (1R,5S,8S)-3-(3-Methyl-6-{[2-(3-methylpyridin-2-yl)-[1,3]thiazolo[5,4-c]pyridin-6-yl]amino}pyridin-2-yl)-3-azabicyclo[3.2.1]octan-8-ol] | < 100 | 
16 | Cc1cccnc1-c1nc2cc(Nc3ccc(C)c(N4C[C@H](O)C[C@H]4CO)n3)ncc2s1 [Example 77, (3R,5S)-5-(Hydroxymethyl)-1-(3-methyl-6-{[2-(3-methylpyridin-2-yl)-[1,3]thiazolo[5,4-c]pyridin-6-yl]amino}pyridin-2-yl)pyrrolidin-3-ol] | < 100 | 
17 | CN1C[C@@H]2C[C@H]1CN2c1cncc(Nc2cc3nc(-c4ccnc(N5CC[C@@H](O)C5)c4)sc3cn2)n1 [Example 263, (3R)-1-{4-[6-({6-[(1S,4S)-5-Methyl-2,5-diazabicyclo[2.2.1]heptan-2-yl]pyrazin-2-yl}amino)-[1,3]thiazolo[5,4-c]pyridin-2-yl]pyridin-2-yl}pyrrolidin-3-ol] | < 100 | 
18 | Cc1cc(Nc2cc3nc(-c4ccc(F)cc4)sc3cn2)nc(O[C@H]2CCNC2)c1 [Example 188, N-[2-(4-Fluorophenyl)-[1,3]thiazolo[5,4-c]pyridin-6-yl]-4-methyl-6-[(3S)-pyrrolidin-3-yloxy]pyridin-2-amine] | < 100 | 
19 | Cc1cccnc1-c1nc2cc(Nc3cccc(N4CCN(C)C[C@@H]4C)n3)ncc2s1 [Example 95, 6-[(2S)-2,4-Dimethylpiperazin-1-yl]-N-[2-(3-methylpyridin-2-yl)-[1,3]thiazolo[5,4-c]pyridin-6-yl]pyridin-2-amine] | 1000 to 5000 | 
20 | CN1C[C@@H]2C[C@H]1CN2c1nccc(Nc2cc3nc(-c4ncco4)sc3cn2)n1 [Example 157, 2-[(1S,4S)-5-Methyl-2,5-diazabicyclo[2.2.1]heptan-2-yl]-N-[2-(1,3-oxazol-2-yl)-[1,3]thiazolo[5,4-c]pyridin-6-yl]pyrimidin-4-amine] | < 100 | 
21 | O[C@@H]1CCN(c2nc3cc(Nc4ccc(C5CCOCC5)c(CN5CCCC5)n4)ncc3s2)C1 [Example 234, (3R)-1-(6-{[5-(Oxan-4-yl)-6-[(pyrrolidin-1-yl)methyl]pyridin-2-yl]amino}-[1,3]thiazolo[5,4-c]pyridin-2-yl)pyrrolidin-3-ol] | 100 to 1000 | 
22 | Cc1cccnc1-c1nc2cc(Nc3cccc(CN4CCCC4)n3)ncc2s1 [Example 52, N-[2-(3-Methylpyridin-2-yl)-[1,3]thiazolo[5,4-c]pyridin-6-yl]-6-[(pyrrolidin-1-yl)methyl]pyridin-2-amine] | < 100 | 
23 | Cc1cc(Nc2cc3nc(-c4ccc(C#N)cc4)sc3cn2)nc(O[C@H]2CCNC2)c1 [Example 187, 4-(6-{[4-Methyl-6-(pyrrolidin-3-yloxy)pyridin-2-yl]amino}-[1,3]thiazolo[5,4-c]pyridin-2-yl)benzonitrile] | < 100 | 
24 | Cc1cccnc1-c1nc2cc(Nc3ccc(N4CCC(F)(F)C4)c(C(C)(C)N)n3)ncc2s1 [Example 272, 6-(2-Aminopropan-2-yl)-5-(3,3-difluoropyrrolidin-1-yl)-N-[2-(3-methylpyridin-2-yl)-[1,3]thiazolo[5,4-c]pyridin-6-yl]pyridin-2-amine] | < 100 | 
